In patent US9611269B2, “Azetidinyl phenyl, pyridyl or pyrazinyl carboxamide derivatives as JAK inhibitors” (Incyte Corporation, priority 2011, dated 2017) one finds JAK2/JAK1 and IC50 data, which are given here for 20 molecules.

Bounds are passed on as bounds.

Holding throughout (assay type): biochemical
Experiment [1] relates to human JAK1 (a.a. 837-1142) catalytic domain. In words: In vitro JAK kinase assay (HTRF, 1 mM ATP), JAK1.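 Also: kinase activity followed as phosphorylation of a biotin-tagged peptide, detected by HTRF with Eu-labelled anti-phosphotyrosine antibody and SA-APC, after 1 h reaction at room temperature.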 Particulars: ratio of JAK2 IC50 to JAK1 IC50 at 1 mM ATP. A general note: In TR-FRET formats the signal depends on donor and acceptor labels being close together.
Experimental: (§1) The catalytic activity of JAK1, JAK2 or JAK3 was assayed by measuring the phosphorylation of a biotinylated peptide. The phosphorylated peptide was detected by homogenous time resolved fluorescence (HTRF). […] Reactions were carried out at room temperature for 1 hour and then stopped with 20 μL 45 mM EDTA, 300 nM SA-APC, 6 nM Eu-Py20 in assay buffer (Perkin Elmer, Boston, Mass.). Binding to the Europium labeled antibody took place for 40 minutes and HTRF signal was measured on a Fusion plate reader (Perkin Elmer, Boston, Mass.).
For experiment [2], the target named is human JAK1 (a.a. 837-1142) catalytic domain (Homo sapiens, UniProt P23458). The experiment can be described thus: In vitro JAK kinase assay (HTRF, 1 mM ATP), JAK1.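 Also: kinase activity followed as phosphorylation of a biotin-tagged peptide, detected by HTRF with Eu-labelled anti-phosphotyrosine antibody and SA-APC, after 1 h reaction at room temperature.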 Particulars: at 1 mM ATP.
Experimental: as §1
Experiment [3] concerns the target human JAK2 (a.a. 828-1132) catalytic domain (Homo sapiens (Human), UniProt O60674). The experiment can be described thus: In vitro JAK kinase assay (HTRF, 1 mM ATP), JAK2. Particulars: at 1 mM ATP.
Experimental: as §1

human JAK1 (a.a. 837-1142) catalytic domain (Homo sapiens, UniProt P23458), sequence (P23458 whole entry, looked up, the tested form may be a part): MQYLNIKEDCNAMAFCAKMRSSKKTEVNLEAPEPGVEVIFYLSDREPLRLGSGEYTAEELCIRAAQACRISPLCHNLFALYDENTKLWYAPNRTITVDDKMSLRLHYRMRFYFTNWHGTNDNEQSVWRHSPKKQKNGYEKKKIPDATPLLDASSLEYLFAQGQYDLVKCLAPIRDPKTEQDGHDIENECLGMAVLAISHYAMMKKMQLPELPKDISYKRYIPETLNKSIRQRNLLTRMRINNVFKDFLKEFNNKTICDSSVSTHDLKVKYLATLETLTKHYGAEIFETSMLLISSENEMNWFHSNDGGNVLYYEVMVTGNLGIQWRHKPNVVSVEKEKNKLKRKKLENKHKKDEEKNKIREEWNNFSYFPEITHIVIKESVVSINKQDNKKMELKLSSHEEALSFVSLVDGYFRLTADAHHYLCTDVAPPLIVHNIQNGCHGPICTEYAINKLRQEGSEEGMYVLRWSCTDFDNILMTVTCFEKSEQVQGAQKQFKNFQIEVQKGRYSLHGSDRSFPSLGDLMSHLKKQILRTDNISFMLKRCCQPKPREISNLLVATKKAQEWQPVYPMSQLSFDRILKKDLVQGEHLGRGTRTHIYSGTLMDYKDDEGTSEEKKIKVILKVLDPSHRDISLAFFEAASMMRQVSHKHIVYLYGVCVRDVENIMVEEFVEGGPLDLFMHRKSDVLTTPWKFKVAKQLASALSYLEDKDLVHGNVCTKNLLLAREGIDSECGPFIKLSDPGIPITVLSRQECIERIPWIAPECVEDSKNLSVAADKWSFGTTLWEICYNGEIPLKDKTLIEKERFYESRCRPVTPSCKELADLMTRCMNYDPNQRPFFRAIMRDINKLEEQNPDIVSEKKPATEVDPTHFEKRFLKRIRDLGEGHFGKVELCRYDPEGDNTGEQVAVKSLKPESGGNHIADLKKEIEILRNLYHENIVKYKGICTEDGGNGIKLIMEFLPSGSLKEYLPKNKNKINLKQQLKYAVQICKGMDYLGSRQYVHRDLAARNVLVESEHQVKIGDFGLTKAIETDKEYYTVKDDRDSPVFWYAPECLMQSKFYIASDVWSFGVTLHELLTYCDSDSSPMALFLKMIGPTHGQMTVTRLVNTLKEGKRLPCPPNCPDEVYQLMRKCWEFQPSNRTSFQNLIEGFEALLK
human JAK2 (a.a. 828-1132) catalytic domain, sequence (O60674 828-1132): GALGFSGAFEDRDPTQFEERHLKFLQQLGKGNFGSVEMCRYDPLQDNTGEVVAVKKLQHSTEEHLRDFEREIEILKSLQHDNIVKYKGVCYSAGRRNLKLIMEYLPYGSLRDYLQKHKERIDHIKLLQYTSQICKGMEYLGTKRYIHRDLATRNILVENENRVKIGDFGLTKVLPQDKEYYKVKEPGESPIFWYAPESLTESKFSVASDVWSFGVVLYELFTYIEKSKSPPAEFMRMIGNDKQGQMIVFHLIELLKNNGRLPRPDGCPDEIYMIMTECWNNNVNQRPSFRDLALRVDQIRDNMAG

Take `CC(C)NC(=O)c1ccc(N2CC(CC#N)(n3cc(-c4ncnc5[nH]ccc45)cn3)C2)c(F)c1` [Example 3, 4-{3-(Cyanomethyl)-3-[4-(7H-pyrrolo[2,3-d]pyrimidin-4-yl)-1H-pyrazol-1-yl]azetidin-1-yl}-3-fluoro-N-isopropylbenzamide]: the JAK2/JAK1 result in experiment [1] was “A (A means greater than or equal to 10)”. Further, the IC50 (usually the midpoint of a concentration-inhibition curve) was less than 10 nM in experiment [2] and not above 10 nM in experiment [3].
For `C[C@@H](NC(=O)c1ccc(N2CC(CC#N)(n3cc(-c4ncnc5[nH]ccc45)cn3)C2)c(F)c1)C1CC1` [Example 4, 4-{3-(Cyanomethyl)-3-[4-(7H-pyrrolo[2,3-d]pyrimidin-4-yl)-1H-pyrazol-1-yl]azetidin-1-yl}-N-[(1R)-1-cyclopropylethyl]-3-fluorobenzamide] the same measures were “A (A means greater than or equal to 10)”, less than 10 nM and not above 10 nM.
For `CC(C)NC(=O)c1ccc(N2CC(CC#N)(n3cc(-c4ccnc5[nH]ccc45)cn3)C2)cc1` [Example 1, 4-{3-(Cyanomethyl)-3-[4-(1H-pyrrolo[2,3-b]pyridin-4-yl)-1H-pyrazol-1-yl]azetidin-1-yl}-N-isopropylbenzamide] the same measures were “A (A means greater than or equal to 10)”, less than 10 nM and 10 to 40 nM.
The like results for `N#CCC1(n2cc(-c3ncnc4[nH]ccc34)cn2)CN(c2ccc(C(=O)N[C@@H](C3CC3)C(F)(F)F)cc2)C1` [Example 38, 4-{3-(Cyanomethyl)-3-[4-(7H-pyrrolo[2,3-d]pyrimidin-4-yl)-1H-pyrazol-1-yl]azetidin-1-yl}-N-[(1S)-1-cyclopropyl-2,2,2-trifluoroethyl]benzamide] were, in that order, “A (A means greater than or equal to 10)”, less than 10 nM and 10 to 40 nM.
As for `CC(C)NC(=O)c1ccc(N2CC(CC#N)(n3cc(-c4ncnc5[nH]ccc45)cn3)C2)cn1` [Example 9, 5-{3-(Cyanomethyl)-3-[4-(7H-pyrrolo[2,3-d]pyrimidin-4-yl)-1H-pyrazol-1-yl]azetidin-1-yl}-N-isopropylpyridine-2-carboxamide], the JAK2/JAK1 result in experiment [1] was “A (A means greater than or equal to 10)”. Moreover, the IC50 was less than 10 nM in experiment [2] and not above 10 nM in experiment [3].
Turning to `N#CCC1(n2cc(-c3ncnc4[nH]ccc34)cn2)CN(c2cnc(C(=O)N[C@@H](C3CC3)C(F)(F)F)cn2)C1` [Example 32, 5-{3-(Cyanomethyl)-3-[4-(7H-pyrrolo[2,3-d]pyrimidin-4-yl)-1H-pyrazol-1-yl]azetidin-1-yl}-N-[(1S)-1-cyclopropyl-2,2,2-trifluoroethyl]pyrazine-2-carboxamide], the JAK2/JAK1 result in experiment [1] is given as “A (A means greater than or equal to 10)”. The IC50 was less than 10 nM in experiment [2] and not above 10 nM in experiment [3].
The like results for `C[C@H](NC(=O)c1ccc(N2CC(CC#N)(n3cc(-c4ncnc5[nH]ccc45)cn3)C2)c(F)c1)C1CC1` [Example 5, 4-{3-(Cyanomethyl)-3-[4-(7H-pyrrolo[2,3-d]pyrimidin-4-yl)-1H-pyrazol-1-yl]azetidin-1-yl}-N-[(1S)-1-cyclopropylethyl]-3-fluorobenzamide] were, in that order, “A (A means greater than or equal to 10)”, less than 10 nM and not above 10 nM.
Turning to `N#CCC1(n2cc(-c3ncnc4[nH]ccc34)cn2)CN(c2cnc(C(=O)NC3(C(F)(F)F)CC3)cn2)C1` [Example 33, 5-{3-(Cyanomethyl)-3-[4-(7H-pyrrolo[2,3-d]pyrimidin-4-yl)-1H-pyrazol-1-yl]azetidin-1-yl}-N-[1-(trifluoromethyl)cyclopropyl]pyrazine-2-carboxamide], in experiment [1], the JAK2/JAK1 entry is reported as “A (A means greater than or equal to 10)”. Moreover, the IC50 was less than 10 nM in experiment [2] and 10 to 40 nM in experiment [3].
For `C[C@H](NC(=O)c1ccc(N2CC(CC#N)(n3cc(-c4ncnc5[nH]ccc45)cn3)C2)cn1)C1CC1` [Example 11, 5-{3-(Cyanomethyl)-3-[4-(7H-pyrrolo[2,3-d]pyrimidin-4-yl)-1H-pyrazol-1-yl]azetidin-1-yl}-N-[(1S)-1-cyclopropylethyl]pyridine-2-carboxamide] the same measures were “A (A means greater than or equal to 10)”, less than 10 nM and not above 10 nM.
For `C[C@@H](NC(=O)c1ccc(N2CC(CC#N)(n3cc(-c4ncnc5[nH]ccc45)cn3)C2)cc1F)C1CC1` [Example 39, 4-{3-(Cyanomethyl)-3-[4-(7H-pyrrolo[2,3-d]pyrimidin-4-yl)-1H-pyrazol-1-yl]azetidin-1-yl}-N-[(1R)-1-cyclopropylethyl]-2-fluorobenzamide] the same measures were “A (A means greater than or equal to 10)”, less than 10 nM and 10 to 40 nM.
Turning to `N#CCC1(n2cc(-c3ncnc4[nH]ccc34)cn2)CN(c2cc(F)c(C(=O)NCC(F)F)cc2F)C1` [Example 37, 4-{3-(Cyanomethyl)-3-[4-(7H-pyrrolo[2,3-d]pyrimidin-4-yl)-1H-pyrazol-1-yl]azetidin-1-yl}-N-(2,2-difluoroethyl)-2,5-difluorobenzamide], the JAK2/JAK1 result in experiment [1] is listed as “A (A means greater than or equal to 10)”. Besides, the figures for the IC50 in experiment [2] and in experiment [3] were less than 10 nM and not above 10 nM, respectively.
Turning to `N#CCC1(n2cc(-c3ncnc4[nH]ccc34)cn2)CN(c2ccc(C(=O)NC3(C(F)(F)F)CC3)nc2)C1` [Example 17, 5-{3-(Cyanomethyl)-3-[4-(7H-pyrrolo[2,3-d]pyrimidin-4-yl)-1H-pyrazol-1-yl]azetidin-1-yl}-N-[1-(trifluoromethyl)cyclopropyl]pyridine-2-carboxamide], the JAK2/JAK1 entry in experiment [1] was “A (A means greater than or equal to 10)”. Also, the IC50 was less than 10 nM in experiment [2] and not above 10 nM in experiment [3].
Consider `C[C@@H](NC(=O)c1cnc(N2CC(CC#N)(n3cc(-c4ncnc5[nH]ccc45)cn3)C2)cn1)C(F)(F)F` [Example 30, 5-{3-(Cyanomethyl)-3-[4-(7H-pyrrolo[2,3-d]pyrimidin-4-yl)-1H-pyrazol-1-yl]azetidin-1-yl}-N-[(1R)-2,2,2-trifluoro-1-methylethyl]pyrazine-2-carboxamide], for which the JAK2/JAK1 entry in experiment [1] is given as “A (A means greater than or equal to 10)”. The figures for the IC50 in experiment [2] and in experiment [3] were less than 10 nM and 10 to 40 nM, respectively.
Regarding `C[C@H](NC(=O)c1ccc(N2CC(CC#N)(n3cc(-c4ncnc5[nH]ccc45)cn3)C2)cc1F)C(F)(F)F` [Example 22, 4-{3-(Cyanomethyl)-3-[4-(7H-pyrrolo[2,3-d]pyrimidin-4-yl)-1H-pyrazol-1-yl]azetidin-1-yl}-2-fluoro-N-[(1S)-2,2,2-trifluoro-1-methylethyl]benzamide], the JAK2/JAK1 entry in experiment [1] is “A (A means greater than or equal to 10)”. The results for the IC50 in experiment [2] and in experiment [3] were less than 10 nM and 10 to 40 nM, respectively.
`C[C@H](NC(=O)c1ccc(N2CC(CC#N)(n3cc(-c4ncnc5[nH]ccc45)cn3)C2)c(F)c1)C(F)(F)F` [Example 10, 4-{3-(Cyanomethyl)-3-[4-(7H-pyrrolo[2,3-d]pyrimidin-4-yl)-1H-pyrazol-1-yl]azetidin-1-yl}-3-fluoro-N-[(1S)-2,2,2-trifluoro-1-methylethyl]benzamide]: the JAK2/JAK1 entry in experiment [1] is listed as “A (A means greater than or equal to 10)”. Moreover, the results for the IC50 in experiment [2] and in experiment [3] were less than 10 nM and not above 10 nM, respectively.
On to `CC(C)NC(=O)c1cc(F)c(N2CC(CC#N)(n3cc(-c4ncnc5[nH]ccc45)cn3)C2)cc1F` [Example 6, 4-{3-(Cyanomethyl)-3-[4-(7H-pyrrolo[2,3-d]pyrimidin-4-yl)-1H-pyrazol-1-yl]azetidin-1-yl}-2,5-difluoro-N-isopropylbenzamide], for which, in experiment [1], the JAK2/JAK1 entry was “A (A means greater than or equal to 10)”. The IC50 in experiment [2] is less than 10 nM; in experiment [3], not above 10 nM.
For `C[C@H](NC(=O)c1ccc(N2CC(CC#N)(n3cc(-c4ncnc5[nH]ccc45)cn3)C2)cc1F)C1CCCCC1` [Example 15, 4-{3-(Cyanomethyl)-3-[4-(7H-pyrrolo[2,3-d]pyrimidin-4-yl)-1H-pyrazol-1-yl]azetidin-1-yl}-N-[(1S)-1-cyclohexylethyl]-2-fluorobenzamide], the JAK2/JAK1 entry in experiment [1] is “A (A means greater than or equal to 10)”. The results for the IC50 in experiment [2] and in experiment [3] were less than 10 nM and 10 to 40 nM, respectively.
The like results for `C[C@H](NC(=O)c1cnc(N2CC(CC#N)(n3cc(-c4ncnc5[nH]ccc45)cn3)C2)cn1)C(F)(F)F` [Example 31, 5-{3-(Cyanomethyl)-3-[4-(7H-pyrrolo[2,3-d]pyrimidin-4-yl)-1H-pyrazol-1-yl]azetidin-1-yl}-N-[(1S)-2,2,2-trifluoro-1-methylethyl]pyrazine-2-carboxamide] were, in that order, “A (A means greater than or equal to 10)”, less than 10 nM and not above 10 nM.
The like results for `C[C@@H](NC(=O)c1cc(F)c(N2CC(CC#N)(n3cc(-c4ncnc5[nH]ccc45)cn3)C2)cc1F)C(F)(F)F` [Example 29, 4-{3-(Cyanomethyl)-3-[4-(7H-pyrrolo[2,3-d]pyrimidin-4-yl)-1H-pyrazol-1-yl]azetidin-1-yl}-2,5-difluoro-N-[(1R)-2,2,2-trifluoro-1-methylethyl]benzamide] were, in that order, “A (A means greater than or equal to 10)”, less than 10 nM and not above 10 nM.
For the molecule `CC(C)NC(=O)c1ccc(N2CC(CC#N)(n3cc(-c4ncnc5[nH]ccc45)cn3)C2)cc1` [Example 13, 4-{3-(Cyanomethyl)-3-[4-(7H-pyrrolo[2,3-d]pyrimidin-4-yl)-1H-pyrazol-1-yl]azetidin-1-yl}-N-isopropylbenzamide], in experiment [1], the JAK2/JAK1 result is on record as “A (A means greater than or equal to 10)”. Besides, the results for the IC50 in experiment [2] and in experiment [3] were less than 10 nM and 10 to 40 nM, respectively.
